Experimental data taken from the supplement of paper PMC4862054.

How the values were obtained:
HCC1143 [1] = test: normalised viability (% of control), CellTiter-Blue; higher = more viable cells (about 100 = DMSO control); details: incubation time: 72 h
Outline: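 384-well plates were pre-loaded with compound in 5 µl medium before 20 µl of breast cancer cell suspension was seeded. Following 72 h incubation, 2.5 µl CellTiter-Blue reagent was added for 2 h at 37 °C. Fluorescence was read at 560/590 nm and plates were normalised to vehicle (100) and a positive kill control (0), checked by Z'-factor. Normalised viability is reported at a single listed concentration of the series.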

CAL-120 = details: 72 h
Outline: (§1)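 Breast cancer cell lines (20 µl suspension) were seeded into 384-well plates holding compound at 5 concentrations in 10-fold steps over a compound-specific 10,000-fold range, then incubated 72 h. Cell death was read first by CellTox Green fluorescence (485/520 nm), then viability by CellTiter-Glo luminescence after 10 min at room temperature. Each plate was normalised to 0.1 % DMSO and a positive kill control. EC50 was fitted from the dose-response curves and censored at the top concentration.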

CAL-51 [2] = details: 72 h
Outline: as §1

Hs578T [3] = details: 72 h
Outline: as §1

MFM-223 [4] = details: 72 h
Outline: as §1

DU-4475 [5] = details: 72 h
Outline: as §1

HCC1143 [6] = details: 72 h
Outline: as §1

MDA-MB-468 [7] = details: 72 h
Outline: as §1

SK-BR-3 [8] = details: 72 h
Outline: as §1

BT-549 [9] = details: 72 h
Outline: as §1

MCF-10A [10] = details: 72 h
Outline: as §1

MDA-MB-436 [11] = details: 72 h
Outline: as §1

MDA-MB-231 [12] = details: 72 h
Outline: as §1

BT-474 [13] = details: 72 h
Outline: as §1

CAL-51 [14] = test: drug sensitivity score (DSS), CellTiter-Glo (DSS (AUC-based score)); higher = stronger drug effect (viability inhibition or cytotoxicity); extreme values may be limits of the assay; details: incubation time: 72 h
Outline: (§2)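 Using 20 µl of cell suspension per well, breast cancer cell lines were seeded into 384-well plates pre-loaded with compound at 5 concentrations in 10-fold steps across a compound-specific 10,000-fold range. Incubation lasted 72 h, after which CellTox Green fluorescence at 485/520 nm and then CellTiter-Glo luminescence, following 10 min at room temperature, were recorded. Each plate was normalised to 0.1 % DMSO and a positive kill control before the drug sensitivity score was derived from the area under the fitted dose-response curve.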

HDQ-P1 = test: as above; details: incubation time: 72 h
Outline: as §2

Hs578T [15] = test: as above; details: incubation time: 72 h
Outline: as §2

MFM-223 [16] = test: as above; details: incubation time: 72 h
Outline: as §2

DU-4475 [17] = test: as above; details: incubation time: 72 h
Outline: as §2

HCC1143 [18] = test: as above; details: incubation time: 72 h
Outline: as §2

MDA-MB-468 [19] = test: as above; details: incubation time: 72 h
Outline: as §2

SK-BR-3 [20] = test: as above; details: incubation time: 72 h
Outline: as §2

BT-549 [21] = test: as above; details: incubation time: 72 h
Outline: as §2

MCF-10A [22] = test: as above; details: incubation time: 72 h
Outline: as §2

CAL-85-1 = test: as above; details: incubation time: 72 h
Outline: as §2

MDA-MB-436 [23] = test: as above; details: incubation time: 72 h
Outline: as §2

MDA-MB-231 [24] = test: as above; details: incubation time: 72 h
Outline: as §2

BT-474 [25] = test: as above; details: incubation time: 72 h
Outline: as §2

CAL-148 = test: as above; details: incubation time: 72 h
Outline: as §2

HCC1599 = test: as above; details: incubation time: 72 h
Outline: as §2

MDA-MB-453 = test: as above; details: incubation time: 72 h
Outline: as §2

| SMILES | normalised viability (HCC1143 [1]; 100 nM) [%] | EC50, CellTiter-Glo (CAL-120) [nM] | EC50, CellTiter-Glo (CAL-51 [2]) [nM] | EC50, CellTiter-Glo (Hs578T [3]) [nM] | EC50, CellTiter-Glo (MFM-223 [4]) [nM] | EC50, CellTiter-Glo (DU-4475 [5]) [nM] | EC50, CellTiter-Glo (HCC1143 [6]) [nM] | EC50, CellTiter-Glo (MDA-MB-468 [7]) [nM] | EC50, CellTiter-Glo (SK-BR-3 [8]) [nM] | EC50, CellTiter-Glo (BT-549 [9]) [nM] | EC50, CellTiter-Glo (MCF-10A [10]) [nM] | EC50, CellTiter-Glo (MDA-MB-436 [11]) [nM] | EC50, CellTiter-Glo (MDA-MB-231 [12]) [nM] | EC50, CellTiter-Glo (BT-474 [13]) [nM] | drug sensitivity score (CAL-51 [14]) | drug sensitivity score (HDQ-P1) | drug sensitivity score (Hs578T [15]) | drug sensitivity score (MFM-223 [16]) | drug sensitivity score (DU-4475 [17]) | drug sensitivity score (HCC1143 [18]) | drug sensitivity score (MDA-MB-468 [19]) | drug sensitivity score (SK-BR-3 [20]) | drug sensitivity score (BT-549 [21]) | drug sensitivity score (MCF-10A [22]) | drug sensitivity score (CAL-85-1) | drug sensitivity score (MDA-MB-436 [23]) | drug sensitivity score (MDA-MB-231 [24]) | drug sensitivity score (BT-474 [25]) | drug sensitivity score (CAL-148) | drug sensitivity score (HCC1599) | drug sensitivity score (MDA-MB-453) | normalised viability (HCC1143 [1]; 10 nM) [%] |
| --- | --- | --- | --- | --- | --- | --- | --- | --- | --- | --- | --- | --- | --- | --- | --- | --- | --- | --- | --- | --- | --- | --- | --- | --- | --- | --- | --- | --- | --- | --- | --- | --- |
| COc1ccc(-c2cc3c(C)nc(N)nc3n([C@H]3CC[C@H](OCCO)CC3)c2=O)cn1 | 92.8 | 123 | 105 | 238 | 261 | 756 | 258 | 208 | 23.8 | 186 | 122 | 181 | 189 | 162 | 22.6 | 18.7 | 18 | 17 | 12.4 | 17.2 | 18.8 | 22.1 | 18.7 | 18.3 | 18.5 | 14.4 | 18.4 | 16.4 | 17.1 | 9.17 | 21.9 | – |
| CC(=O)OC[C@H]1O[C@@H]([S-])[C@H](OC(C)=O)[C@@H](OC(C)=O)[C@@H]1OC(C)=O.CCP(CC)CC.[Au+] [Auranofin] | – | 2490 | 199 | 1020 | 1460 | 1870 | 559 | 140 | 1730 | 386 | 1630 | 560 | 1010 | 2390 | 11.7 | 3.9 | 3.87 | 2.71 | 1.74 | 5.15 | 14.9 | 1.76 | 9.2 | 1.42 | 6.05 | 5.88 | 4.38 | 1.22 | 1.24 | 1.36 | 6.93 | – |
| Cc1c(CN2CCN(C(=O)[C@H](C)O)CC2)sc2c(N3CCOCC3)nc(-c3cnc(N)nc3)nc12 [GDC-0980] | 71.5 | 618 | 423 | 445 | 362 | 2480 | 591 | 894 | 130 | 412 | 486 | 501 | 580 | 375 | 14.7 | 14.1 | 12.6 | 12.7 | 6.71 | 11.4 | 10.1 | 18.5 | 13.1 | 12.6 | 11.8 | 8.47 | 9.56 | 8.66 | 12.4 | 2.28 | 17.5 | – |
| C[C@]12O[C@H](C[C@]1(O)CO)n1c3ccccc3c3c4c(c5c6ccccc6n2c5c31)CNC4=O [Lestaurtinib] | – | 45.1 | > 1000 | 354 | 263 | 188 | 68.7 | 25.2 | 215 | 130 | 215 | 787 | 188 | 151 | 0.729 | 2.59 | 3.6 | 4.3 | 8.11 | 2.04 | 11.8 | 8.99 | 7.26 | 8.64 | 4.38 | 3.31 | 2.14 | 3.87 | 0 | 7.24 | 5.26 | 113 |
| Nc1ccccc1NC(=O)c1ccc(CNc2nccc(-c3cccnc3)n2)cc1 [Mocetinostat] | 81.5 | 1600 | 1650 | 3430 | 4850 | 1570 | 2250 | 1840 | 1660 | 1060 | 5300 | 4130 | 2720 | 2920 | 8.93 | 4.52 | 5.95 | 5.07 | 9 | 5.67 | 8.18 | 8.95 | 8.43 | 1.13 | 6.32 | 5.31 | 6.07 | 6.06 | 7.02 | 5.88 | 9.7 | – |
| Cn1cc(CNCC2CCN(c3ncc(C(=O)NO)cn3)CC2)c2ccccc21 [Quisinostat] | – | 74.2 | 78.7 | 59.1 | 70.7 | 24 | 21.5 | 50.7 | 21.4 | 81.8 | 92.8 | 50.9 | 65.4 | 58.6 | 12.1 | 10.3 | 13.7 | 9.28 | 16.2 | 16.7 | 13.6 | 19.3 | 11.9 | 11.5 | 16.4 | 9.76 | 13.2 | 13.7 | 18.3 | 12.5 | 23.3 | – |
